# In EP1800684A1, “Novel alkyl phospholipid derivatives and uses thereof” (Zentaris GmbH, priority 2005, dated 2007):
# Like-named read-outs stand apart in the source and are kept apart here.
# Experiments:
# Format in all cases: cell-based
# [1] = tested on: Plasmodium falciparum (strain 3D7); assay: In vitro drug susceptibility assay, protozoon D (3[H]-hypoxanthine method)
# Method: (§1) Plasmodium falciparum strain K1 and strain 3D7 parasites were cultured according to Trager W and Jensen JB (Science 1976, 193: 673-675). In vitro drug susceptibility assays with the test compounds were carried out according to Korsinczky M et al. (Antimicrobial agents and chemotherapy 2000, 44(8): 2100-2108) and Fivelman QL et al. (Antimicrobial agents and chemotherapy 2004, 48(11): 4097-4102) using a ^3[H]-hypoxanthine radioisotope method. ED50 values were calculated with Msxlfit (IDBS).
# (§2) The following protozoa were assessed: • A) Trypanosoma cruzi (Tulahuan-LACZ amstigotes in PEM, Lorente SO et al., Antimicrobial agents and chemotherapy 2004, 48(8): 2937-2950; Buckner et al., Infection and Immunity 1999, 67(1): 403-409; Buckner et al., Antimicrobial Agents and Chemotherapy 1996, 40(11): 2592-2597) • B) Trypanosoma brucei rhodesiense (strain STIB900, Lorente SO et al., Antimicrobial agents and chemotherapy 2004, 48(8): 2937-2950; Habtemariam S, BMC Pharmacology 2003, 3:6) • C) Plasmodium falciparum (strain K1, Korsinczky M et al., Antimicrobial agents and chemotherapy 2000, 44(8): 2100-2108; Thaitong S and Beale GH, Trans. R. Soc. Trop. Med. Hyg. 1981, 75: 271-273; Trager W and Jensen JB, Science 1976, 193: 673-675) • D) Plasmodium falciparum (strain 3D7, Mu et al., PLoS Biology 2005, 3(10): e335)
# [2] = tested on: Plasmodium falciparum (strain K1); assay: In vitro drug susceptibility assay, protozoon C (3[H]-hypoxanthine method)
# Method: as §1, §2
# [3] = tested on: Trypanosoma brucei rhodesiense (strain STIB900); assay: In vitro drug activity assay, protozoon B (bloodstream form trypomastigotes, Alamar Blue); conditions: incubated for 72 hours
# Method: Trypanosoma brucei rhodesiense STIB900 bloodstream form trypomastigotes were maintained in HMI-18 medium (Hirumi H, Hirumi K, J Parasitol. 1989, 75(6):985-989) with 15% heat-inactivated fetal calf serum at 37°C, 5% CO2, humidified atmosphere. Trypomastigotes were washed and resuspended in fresh medium at a concentration of 2 x 10^5 mL. Test compounds were given to the trypomastigotes and plates were incubated for 72 hours at 37°C, 5% CO2, humidified atmosphere. At 72 hours the plates were assessed microscopically before Alamar Blue was added (Raz et al., Acta Trop. 1997, 68: 139-147). Plates were read after 5 to 6 hours at EX/EM 530/585 nm with a filter cutoff at 550 nm. ED50 values were calculated with Msxlfit (IDBS).
# as §2
# [4] = tested on: Aspergillus fumigatus (ATCC 204305); assay: Anti-fungal susceptibility test (microdilution), fungus H
# Method: (§3) The antifungal activities of the test compounds (compounds of the invention and known prior art compounds) were measured according to standard microdilution methods (Cryptococcus/Aspergillus: Ghannoum et al., Journal of Clinical Microbiology 1992, 30 (11): 2881-2886; Candida: Reference method for broth dilution susceptibility testing of yeast: proposed standard, NCCLS document M27-P, National Committee for Clinical Laboratory Standards 1992, Villanova, Pa).
# (§4) A serial dilution series starting from 64 µg/mL test compound per well down to 0.125 µg/mL test compound per well was applied for each test compound on each fungus. The MIC of each compound was defined as the concentration which produces no visible growth after 48 hours (Candida) and 72 hours (Cryptococcus, Aspergillus) of culture at 35° C.
# (§5) The following fungi were assessed: • A) Candida albicans (ATCC 10231) • B) Candida albicans (ATCC 90028) • C) Candida albicans (strain TS3, Shrikantha et al., Journal of Bacteriology 2000, 182(6):1580-1591) • D) Candida parapsilosis (ATCC 22019) • E) Cryptocoocus neoformans (ATCC 90112) • F) Cryptocoocus neoformans (strain H99; Ganendren et al., Antimicrobial Agents and Chemotherapy, 2004, 48(5):1561-1569) • G) Cryptocoocus gattii (ATCC 32608) • H) Aspergillus fumigatus (ATCC 204305) • I) Aspergillus fumigatus (strain 322-384)
# [5] = tested on: Candida parapsilosis (ATCC 22019); assay: Anti-fungal susceptibility test (microdilution), fungus D
# Method: as §3, §4, §5
# [6] = tested on: Candida albicans (ATCC 90028); assay: Anti-fungal susceptibility test (microdilution), fungus B
# Method: as §3, §4, §5
# [7] = tested on: Cryptocoocus neoformans (ATCC 90112); assay: Anti-fungal susceptibility test (microdilution), fungus E
# Method: as §3, §4, §5
# [8] = tested on: Candida albicans (ATCC 10231); assay: Anti-fungal susceptibility test (microdilution), fungus A
# Method: as §3, §4, §5
# [9] = tested on: Candida albicans (strain TS3); assay: Anti-fungal susceptibility test (microdilution), fungus C; conditions: no visible growth after 48 hours at 35° C
# Method: as §3, §4, §5
# [10] = tested on: Cryptocoocus neoformans (strain H99); assay: Anti-fungal susceptibility test (microdilution), fungus F; conditions: fungus F; no visible growth after 72 hours at 35° C; read-out: MIC
# Method: as §3, §4, §5
# [11] = tested on: Aspergillus fumigatus (strain 322-384); assay: Anti-fungal susceptibility test (microdilution), fungus I; conditions: no visible growth after 72 hours at 35° C
# Method: as §3, §4, §5
# [12] = tested on: Cryptocoocus gattii (ATCC 32608); assay: Anti-fungal susceptibility test (microdilution), fungus G; conditions: fungus G; no visible growth after 72 hours at 35° C; read-out: MIC
# Method: as §3, §4, §5
# [13] = tested on: KB/HeLa (ATCC CCL17, human cervix carcinoma); assay: XTT cytotoxicity assay, KB/HeLa cells; conditions: 48 h, 2 days of continuous drug exposure
# Method: (§6) Human tumor cell lines KB/HeLa (ATCC CCL17, human cervix carcinoma), PC3 (ATCC CRL1435, human prostate carcinoma) and RKOp21 (human colon adenocarcinoma) cells were used in an automated XTT screening assay for the assessment of cytotoxicity.
# (§7) The XTT assay quantifies cellular metabolic activity which correlates with cell viability and cell number. Test compounds (selected compounds of the invention and known substances as controls) are dissolved in culture medium at 600µM and added to the tumor cells in 10 different concentrations in a semi-logarithmic fashion starting from 100 µM as highest concentration.
# (§8) 48h later cellular metabolic activity of cells treated with test compounds is quantified by measurement of the absorbance at 490nm (conversion of XTT dye) in comparison to untreated control cells (100% viability).
# (§9) KB/HeLa and PC3 cells were cultivated in RPMI medium supplemented with 10% heat inactivated fetal calf serum, 2 mM glutamine, 100 U/ml penicillin, and 100 µg/ml streptomycin. RKOp21 cells were grown in DMEM supplemented with 10% heat inactivated fetal calf serum, 2 mM glutamine, 100 U/ml penicillin, and 100 µg/ml streptomycin. All cells were cultured at 37°C in 5% CO2 humidified air.
# (§10) On the first day of the experiment cells were harvested from exponential phase cultures by trypsination, counted and plated into 96 well flat-bottom micro titer plates depending on the cell line as listed below:
# (§11) After a 24h recovery to allow the cells to resume exponential growth, the test compounds were diluted immediately prior to use and transferred in 25µl volume to the wells.
# (§12) Following 2 days of continuous drug exposure 50µl of freshly prepared XTT-PMS solution (2% […] PMS in PBS + 98% 1 mg/ml XTT in RPMI 1640 without phenol red) was added to the wells. To measure the proportion of living cells, the cells were incubated for 3 h with XTT-PMS reagent at 37°C, 5% CO2, humidified atmosphere allowing to form the formazan salt. The amount of soluble formazan salt produced by cellular reduction of XTT is quantified by measuring the absorbance at 490nm using the Biomek® 2000 ELISA plate reader.
# (§13) %-inhibition (cytotoxicity) of each test compound was calculated in relation to untreated control cells. Inhibition curves were generated and IC50 values calculated by using GraphPad Prism.
# [14] = tested on: RKOp21 (human colon adenocarcinoma) cells; assay: XTT cytotoxicity assay, RKOp21 cells; conditions: 48 h, 2 days of continuous drug exposure
# Method: as §6, §7, §8, §9, §10, §11, §12, §13
# [15] = tested on: PC3 (ATCC CRL1435, human prostate carcinoma); assay: XTT cytotoxicity assay, PC3 cells; conditions: PC-3, 48 h, 2 days of continuous drug exposure
# Method: as §6, §7, §8, §9, §10, §11, §12, §13
# [16] = tested on: Trypanosoma cruzi (Tulahuan-LACZ amstigotes in PEM); assay: In vitro drug activity assay, protozoon A (amastigotes in murine peritoneal macrophages, CPRG readout); conditions: infected macrophages exposed for 3 days
# Method: Murine (CD1) peritoneal macrophages were harvested 24 hours after starch induction and dispensed into 96-well plates at a concentration of 4 x 10^5 mL. After 24 hours, the cells were infected with Trypanosoma cruzi Tulahuan LAC-Z amastigotes (grown and cultured according to Buckner et al., Infection and Immunity 1999, 67(1): 403-409). 24 hours later, the infected cells were exposed to the test compounds (compounds of the invention as well as known prior art compounds) for 3 days and 50 µL of 500 µM CPRG-1% Nonidet P-40 was added to each well. The plates were read after 2 to 5 hours at 570 nm (Buckner et al., Antimicrobial Agents and Chemotherapy 1996, 40(11): 2592-2597). ED50 values were calculated with Msxlfit (IDBS).
# as §2
# [17] = Aspergillus fumigatus, ATCC204305, no visible growth after 72 hours at 35° C, read-out: MIC
# [18] = ATCC22019, no visible growth after 48 hours at 35° C, read-out: MIC
# [19] = Candida albicans, ATCC90028, no visible growth after 48 hours at 35° C, read-out: MIC
# [20] = Candida albicans, ATCC10231, no visible growth after 48 hours at 35° C, read-out: MIC
# [21] = Candida albicans, read-out: MIC
# [22] = Aspergillus fumigatus, read-out: MIC
# [23] = no visible growth after 48 hours at 35° C
smiles,measurement,setting,value
"CCCCCCCCCCCCCCCCOP(=O)([O-])OC1CC[N+](C)(CCc2ccccc2)CC1 (centres unmarked) [Compound 4, Phosphoric acid 1-methyl-1-phenethyl-piperidin-4-yl ester hexadecyl ester]",ED50 (µg/mL),[1],"15,32 µg/mL"
same,ED50 (µg/mL),[2],"5,44 µg/mL"
same,ED50 (µg/mL),[3],"12,29 µg/mL"
"CCCCCCCCCCCCCCCCOCCCOP(=O)([O-])OCC[N+](C)(C)C [Compound 8, Phosphoric acid 3-hexadecyloxy-propyl ester 2-trimethylammonium-ethyl ester]",MIC,[4]; [17],2 mg/L
same,MIC,[5]; [18],0.75 mg/L
same,MIC,[6]; [19],0.75 mg/L
same,MIC,"[7]; fungus E, no visible growth after 72 hours at 35° C, read-out: MIC",2 mg/L
same,MIC,[8]; [20],0.75 mg/L
same,MIC,[9]; [21],1 mg/L
same,MIC,[10],1.5 mg/L
same,MIC,[11]; [22],2 mg/L
same,MIC,[12],0.75 mg/L
"CCCCCCCC/C=C\CCCCCCCCCCCCOP(=O)([O-])OC1CC[N+](C)(C)CC1 [Compound 17, Phosphoric acid 1,1-dimethyl-piperidin-4-yl ester (Z)-docos-13-enyl ester]",IC50,[13],16.6 µM
same,IC50,[14],32.5 µM
same,IC50,[15],18.3 µM
"CCCCCCCC/C=C\CCCCCCCCOP(=O)(O)OCCN1CCCCC1 [Compound 19, Phosphoric acid (Z)-octadec-9-enyl ester 2-piperidin-1-yl-ethyl ester]",IC50,[13],> 100 µM
same,IC50,[14],> 100 µM
same,IC50,[15],> 100 µM
"CCCCCCCCCCOCCOCCOP(=O)([O-])OCC[N+]1(C)CCCCC1 [Compound 20, Phosphoric acid 2-(2-decyloxy-ethoxy)-ethyl ester 2-(1-methylpiperidin-1-yl)-ethyl ester]",IC50,[13],> 100 µM
same,IC50,[14],> 100 µM
same,IC50,[15],> 100 µM
CCCCCCCCCCCCCCCCCCOP(=O)([O-])OCC[As+](C)(C)C [Compound 22],MIC,[4]; no visible growth after 72 hours at 35° C,4 mg/L
same,MIC,[5]; [23],1 mg/L
same,MIC,[6]; [23],1 mg/L
same,MIC,[8]; [23],0.5 mg/L
same,MIC,[9],1 mg/L
same,MIC,[11],2 mg/L
"CCCCCCCC/C=C\CCCCCCCCCCCCOP(=O)([O-])OCC[N+](C)(C)C [ErPC, (13Z)-docosenylphosphocholine, reference compound]",MIC,[4]; [17],> 64 mg/L
same,MIC,[5]; [18],> 64 mg/L
same,MIC,[6]; [19],> 64 mg/L
same,MIC,[7]; 72 h,4 mg/L
same,MIC,[8]; [20],> 64 mg/L
same,MIC,[9]; [21],> 64 mg/L
same,MIC,[10],3 mg/L
same,MIC,[11]; [22],> 64 mg/L
same,MIC,[12],1.5 mg/L
"O=C(Cn1ccnc1[N+](=O)[O-])NCc1ccccc1 [benznidazole, Benznidazole, reference compound]",ED50 (µg/mL),[16],"0,22 µg/mL"
"CCCCCCCCCCCCCCCCOP(=O)([O-])OCC[N+](C)(C)C [miltefosine, reference compound]",ED50 (µg/mL),[16],"0,63 µg/mL"
same,IC50,[13],8.66 µM
same,IC50,[14],18 µM
same,IC50,[15],9.39 µM
"CCCCCCCCCCCCCCCCCCOP(=O)([O-])OC1CC[N+](C)(C)CC1 [perifosine, octadecyl-1,1-dimethyl-piperidino-4-yl-phosphate, reference compound]",IC50,[13],2.37 µM
same,IC50,[14],3.31 µM
same,IC50,[15],3.22 µM
